The values below are quoted from earlier work in patent EP3021668B1, “EMULSIFIABLE CONCENTRATE COMPRISING PESTICIDE, ALKYL LACTATE, FATTY AMIDE AND ACETOPHENONE” (BASF SE, priority 2013, dated 2015).

For data set [1] the following is noted: at 20 °C.
For data set [2] the following is noted: pure solvents; according to the Annex III of European Union Directive 67/548/EEC.

With `Cn1cc(C(=O)Nc2ccccc2-c2cc(F)c(F)c(F)c2)c(C(F)F)n1` [fluxapyroxad], in data set [1], the soluble in water entry is “about 4 mg/l”.
For the molecule `CC(=O)c1ccccc1` [acetophenone], the eye toxicity classification entry in data set [2] is given as “R36 "Irritating to eyes"”.
Turning to `COC(=O)N(OC)c1ccccc1COc1ccn(-c2ccc(Cl)cc2)n1` [pyraclostrobin], the soluble in water entry in data set [1] is given as “about 2 mg/l”.
Regarding `CCCC[C@H](CC)COC(=O)C(C)O` (stereo partly drawn) [(S)-2-ethylhexyl lactate], in data set [2], the eye toxicity classification entry is reported as “R36 "Irritating to eyes"”.
